Source: BindingDB's records for PubMed 10215672 (Taisho Pharmaceutical, 1999)
Values joined by “and” are separate entries in the source; they are usually repeats but may differ in a detail not shown here. Identical values can stand only once.

Tests used:
[1] = molecular target: T1, Corticotropin-releasing factor receptor 1 (Rattus norvegicus, UniProt P35353)
T1 sequence (P35353 whole entry): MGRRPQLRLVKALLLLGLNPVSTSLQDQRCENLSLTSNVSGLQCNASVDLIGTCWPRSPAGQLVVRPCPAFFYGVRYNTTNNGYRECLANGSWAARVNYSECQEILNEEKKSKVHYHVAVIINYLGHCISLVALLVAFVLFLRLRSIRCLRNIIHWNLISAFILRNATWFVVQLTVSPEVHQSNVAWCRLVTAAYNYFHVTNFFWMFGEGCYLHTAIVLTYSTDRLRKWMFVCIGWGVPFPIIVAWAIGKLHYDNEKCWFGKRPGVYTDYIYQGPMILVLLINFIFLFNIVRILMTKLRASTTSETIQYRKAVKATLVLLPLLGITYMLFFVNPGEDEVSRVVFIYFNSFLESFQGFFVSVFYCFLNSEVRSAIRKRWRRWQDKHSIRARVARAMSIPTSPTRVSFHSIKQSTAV

[2] = molecular target: Corticotropin-releasing factor receptor 2 (Rattus norvegicus, UniProt P47866)
Sequence of Corticotropin-releasing factor receptor 2 (P47866 whole entry): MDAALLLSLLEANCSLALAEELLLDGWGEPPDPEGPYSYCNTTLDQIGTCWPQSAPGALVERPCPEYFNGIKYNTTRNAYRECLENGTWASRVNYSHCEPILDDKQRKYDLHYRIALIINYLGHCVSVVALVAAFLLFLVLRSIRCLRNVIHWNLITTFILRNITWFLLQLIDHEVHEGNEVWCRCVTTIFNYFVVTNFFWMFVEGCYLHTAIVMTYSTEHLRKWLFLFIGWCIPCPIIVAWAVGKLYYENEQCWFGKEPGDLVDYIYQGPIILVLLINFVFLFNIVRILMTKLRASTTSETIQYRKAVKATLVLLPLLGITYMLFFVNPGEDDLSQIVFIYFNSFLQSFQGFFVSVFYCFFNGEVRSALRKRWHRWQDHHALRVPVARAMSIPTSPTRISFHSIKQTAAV

Row | Ki [1] | Ki [2] [µM] | SMILES
1 | 0.0018 µM | > 10 | CCCCN(CC)c1nc(C)nc2c1c(C)cn2-c1c(C)cc(C)cc1C
2 | 0.0148 µM and 0.0207 µM | > 10 | COCCN(CCOC)c1nc(C)nc2c1nnn2-c1ccc(C(C)C)cc1Br
3 | 0.0223 µM and 0.0186 µM | > 10 | CCN(c1nc(C)cc(N2CCC=C(c3cccc(F)c3)C2)n1)c1ccc(CC(C)C)cc1Br [CRA1001]
